Results from patent US11691984B2, “Compounds and methods for DCAF-mediated protein degradation” (The Scripps Research Institute, priority 2018, dated 2023).

How the values were obtained:
[1] = molecular target: T1, HA-DCAF16 and FLAG-FKBP12_NLS (Homo sapiens, UniProt P62942+Q9NXF7); assay: Co-immunoprecipitation of HA-DCAF16 with FLAG-FKBP12_NLS (ternary complex) in HEK293T cells; assay type: cell-based; details: MG132 10 μM
T1 construct: expressed in transfected cells; host or cells: HEK293T stably expressing FLAG-FKBP12_NLS, transiently transfected with HA-DCAF16 (pRK5)
Procedure: (§1) Cells were collected and lysed in 1% NP-40 lysis buffer (25 mM Tris-HCl pH 7.4, 150 mM NaCl, 10% glycerol, 1% Nonidet P-40) with complete protease inhibitor cocktail (Roche). Cells were vortexed and sonicated for 5 pulses (40%, 4). The supernatant was collected after centrifugation at 16,000 g for 10 min at 4° C. Protein concentration was determined by DC assay (Bio-Rad). Protein lysate was heated at 95° C. for 5 min in 1× Laemmli sample buffer. Proteins were resolved by 12% or 14% Novex Tris-Glycine Mini Gels (Invitrogen) and transferred to polyvinylidene fluoride (PVDF) membrane (0.2 Bio-Rad). The membrane was blocked with 5% BSA in TBST buffer (0.1% Tween 20, 20 mM Tris-HCl 7.6, 150 mM NaCl) at room temperature for 1 h. The antibody was diluted with fresh 5% BSA in TBST buffer (1:10000 dilution for FLAG, HA and β-Actin, 1:1000 dilution for others) and incubated with membrane (1 h room temperature for FLAG, HA and β-Actin, overnight 4° C. for others). Membrane was washed three times with TBST buffer and incubated with secondary antibody (1:5000 dilution in 5% BSA in TBST) at room temperature for 1 h. Membrane was washed three times with TBST buffer. The chemiluminescence signal in membrane was recorded after developing in ECL or ECL plus western blotting detection reagent using CL-XPosure film (Thermo Scientific). Relative band intensities were quantified using ImageJ.
(§2) Cells were collected and lysed in 1% NP-40 lysis buffer with complete protease inhibitor cocktail on ice for 10 min, followed by 5 pulses of sonication (40%, 4). After centrifugation at 16,000 g for 10 min at 4° C., the supernatant was collected. FLAG affinity gel (20 μL slurry per sample) was incubated with protein lysates at 4° C. for 1 h and washed four times with IP washing buffer. The affinity gel was heated at 95° C. for 10 min in 2× Laemmli sample buffer, followed by western blot analysis.

[2] = tested on: HA-DCAF16 and FLAG-FKBP12_NLS; assay: as above; assay type: cell-based, human; details: KB02-SLF, cells pre-treated with MG132
Procedure: as §1, §2

[3] = molecular target: T2, FLAG-FKBP12 (Homo sapiens, UniProt P62942); assay: Polyubiquitination of immunoprecipitated cytosolic FLAG-FKBP12 in HEK293T cells; assay type: cell-based; details: KB02-SLF 5 μM, MG132 10 μM, 2 hours
T2 construct: expressed in transfected cells; host or cells: HEK293T (lentiviral transduction, puromycin selection)
Procedure: as §1, with “ImageJ. […]” for “ImageJ.”

[4] = molecular target: FLAG-FKBP12_NLS (Homo sapiens, UniProt P62942); assay: Polyubiquitination of immunoprecipitated FLAG-FKBP12_NLS in HEK293T cells; assay type: cell-based; parameters: expressed in transfected cells; host or cells: HEK293T, (lentiviral pCDH-CMV-MCS-EF1-Puro); details: KB02-SLF 5 μM, MG132 10 μM, 2 hours
Procedure: as §1, with “ImageJ. […]” for “ImageJ.”

[5] = molecular target: T3, BRD2 (Homo sapiens, UniProt P25440); assay: Proteome-wide SILAC MS protein abundance in HEK293T cells: BRD2; assay type: cell-based; details: KB02-JQ1 20 μM, 24 hours
T3 construct: endogenous in cells; host or cells: HEK293T
Procedure: HEK293T light and heavy SILAC cells were treated with DMSO and KB02-JQ1 (20 μM) or KB02-SLF (2 μM) for 24 hours, respectively. Light and heavy cells were collected and lysed in 1% NP-40 lysis buffer with complete protease inhibitor cocktail. Cells were vortexed and sonicated for 5 pulses (40%, 4). The supernatant was collected after centrifugation at 16,000 g for 10 min at 4° C. Protein concentration was determined by DC assay. 50 μg proteome from light and heavy samples were mixed, followed by methanol/chloroform precipitation. […] Next, the ratio of the peak areas under the light and heavy signals (signal-to-noise ratio>2.5) was calculated. […] In addition, peptides detected as ‘singletons,’ where only the heavy ion of a peptide pair was identified, but that cleared all other filtering parameters, were given a default assigned ratio of ‘20,’ which is defined as any measured ratio that is ≥20 and is the maximum ratio reported here.” The median SILAC ratios from quantified peptides were used as measures of protein abundance. The following quality filters were further applied to generate the plot: (1) proteins must have at least two quantified peptides; (2) proteins must be present in both replicates; (3) for each protein, the standard deviation of measured ratios of peptides must be <1.0.

Chain of FLAG-FKBP12_NLS (P62942 whole entry): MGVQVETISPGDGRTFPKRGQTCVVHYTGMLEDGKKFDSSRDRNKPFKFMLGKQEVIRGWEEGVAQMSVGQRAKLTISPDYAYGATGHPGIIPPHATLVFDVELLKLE
T1 sequence (Q9NXF7 whole entry): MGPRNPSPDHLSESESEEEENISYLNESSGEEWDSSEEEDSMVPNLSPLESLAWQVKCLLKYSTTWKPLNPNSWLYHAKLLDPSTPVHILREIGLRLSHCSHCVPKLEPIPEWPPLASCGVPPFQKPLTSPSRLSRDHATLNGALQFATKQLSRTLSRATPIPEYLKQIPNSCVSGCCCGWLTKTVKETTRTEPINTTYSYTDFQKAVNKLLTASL
T1 sequence (P62942 2-108): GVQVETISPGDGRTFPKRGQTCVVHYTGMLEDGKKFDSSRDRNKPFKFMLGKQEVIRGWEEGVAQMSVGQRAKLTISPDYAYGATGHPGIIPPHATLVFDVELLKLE
T1 sequence (Q16531 whole entry partner): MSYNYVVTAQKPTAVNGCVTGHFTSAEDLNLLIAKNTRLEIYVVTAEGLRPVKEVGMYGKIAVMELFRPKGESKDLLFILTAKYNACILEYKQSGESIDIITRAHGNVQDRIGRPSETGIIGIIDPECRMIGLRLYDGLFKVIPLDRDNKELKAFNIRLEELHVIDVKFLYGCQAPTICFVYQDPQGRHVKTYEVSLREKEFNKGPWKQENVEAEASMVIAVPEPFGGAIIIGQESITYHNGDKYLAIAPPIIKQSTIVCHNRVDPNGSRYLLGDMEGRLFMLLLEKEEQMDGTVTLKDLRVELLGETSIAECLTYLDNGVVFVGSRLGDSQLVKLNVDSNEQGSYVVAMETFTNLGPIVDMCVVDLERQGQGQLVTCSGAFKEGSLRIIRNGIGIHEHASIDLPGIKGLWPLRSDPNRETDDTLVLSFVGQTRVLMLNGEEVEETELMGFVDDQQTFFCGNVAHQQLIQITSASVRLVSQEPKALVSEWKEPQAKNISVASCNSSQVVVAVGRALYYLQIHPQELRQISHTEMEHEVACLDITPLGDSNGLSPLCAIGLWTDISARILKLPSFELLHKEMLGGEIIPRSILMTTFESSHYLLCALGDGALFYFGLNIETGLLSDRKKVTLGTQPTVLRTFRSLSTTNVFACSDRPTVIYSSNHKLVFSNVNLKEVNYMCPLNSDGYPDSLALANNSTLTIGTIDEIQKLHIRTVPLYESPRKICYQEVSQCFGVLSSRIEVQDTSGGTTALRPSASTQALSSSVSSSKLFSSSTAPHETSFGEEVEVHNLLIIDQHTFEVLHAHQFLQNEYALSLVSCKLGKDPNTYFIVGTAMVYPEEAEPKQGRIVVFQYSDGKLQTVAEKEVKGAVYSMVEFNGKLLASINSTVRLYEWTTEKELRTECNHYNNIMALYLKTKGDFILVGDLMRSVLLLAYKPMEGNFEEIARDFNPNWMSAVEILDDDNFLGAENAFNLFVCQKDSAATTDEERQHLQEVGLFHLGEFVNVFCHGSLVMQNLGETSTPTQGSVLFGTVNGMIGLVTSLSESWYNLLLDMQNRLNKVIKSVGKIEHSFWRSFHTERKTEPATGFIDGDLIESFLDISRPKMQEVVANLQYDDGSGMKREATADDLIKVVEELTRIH
T2 sequence (P62942 whole entry): as the sequence (P62942 whole entry) above
T3 sequence (P25440 whole entry): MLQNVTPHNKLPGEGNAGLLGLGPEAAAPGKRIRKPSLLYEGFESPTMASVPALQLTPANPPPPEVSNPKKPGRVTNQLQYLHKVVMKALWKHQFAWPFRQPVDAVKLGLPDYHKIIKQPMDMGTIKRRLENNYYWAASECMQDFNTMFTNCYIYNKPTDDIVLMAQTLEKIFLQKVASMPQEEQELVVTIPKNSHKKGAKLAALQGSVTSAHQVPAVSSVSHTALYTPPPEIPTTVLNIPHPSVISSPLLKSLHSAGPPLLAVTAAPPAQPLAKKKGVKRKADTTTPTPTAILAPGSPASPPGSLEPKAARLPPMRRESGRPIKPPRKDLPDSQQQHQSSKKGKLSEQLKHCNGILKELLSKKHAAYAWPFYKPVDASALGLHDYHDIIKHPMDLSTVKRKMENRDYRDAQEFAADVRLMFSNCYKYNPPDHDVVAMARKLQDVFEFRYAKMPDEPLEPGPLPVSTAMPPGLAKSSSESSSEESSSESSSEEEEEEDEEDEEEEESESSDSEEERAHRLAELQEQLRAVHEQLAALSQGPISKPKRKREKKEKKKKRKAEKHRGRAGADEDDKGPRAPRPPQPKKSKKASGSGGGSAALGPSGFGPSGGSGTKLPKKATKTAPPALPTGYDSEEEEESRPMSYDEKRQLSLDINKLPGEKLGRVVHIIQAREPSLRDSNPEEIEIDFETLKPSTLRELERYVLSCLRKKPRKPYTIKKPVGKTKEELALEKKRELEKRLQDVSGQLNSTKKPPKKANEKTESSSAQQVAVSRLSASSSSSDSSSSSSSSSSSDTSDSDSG

`CCC(C)(C)C(=O)C(=O)N1CCCC[C@H]1C(=O)O[C@H](CCc1ccc(OC)c(OC)c1)c1cccc(NC(=O)CCOCCOCCNC(=O)COc2ccc3c(c2)CCCN3C(=O)CCl)c1` [KB02-SLF, (R)-1-(3-(3-(2-(2-(2-((1-(2-chloroacetyl)-1,2,3,4-tetrahydroquinolin-6-yl)oxy)acetamido)ethoxy)ethoxy)propanamido)phenyl)-3-(3,4-dimethoxyphenyl)propyl (S)-1-(3,3-dimethyl-2-oxopentanoyl)piperidine-2-carboxylate] was tested, and the “co-immunoprecipitation of HA-DCAF16 with FLAG-FKBP12_NLS” value ([1]; 5 μM, 2 hours) was “HA-DCAF16 and DDB1 co-immunoprecipitated with FLAG-FKBP12_NLS”, the “conversion of HA-DCAF16 to higher molecular weight (HMW) form” value ([1]; increasing concentrations of KB02-SLF, 2 h) was “Only a modest fraction of HA-DCAF16 was converted to this HMW” and the “co-immunoprecipitation of C173S- and C178S-DCAF16 with FKBP12_NLS” value [2] was “co-immunoprecipitated with FKBP12_NLS in KB02-SLF-treated cells”. The “co-immunoprecipitation of C177S- and C179S-DCAF16 with FKBP12_NLS” value [2] was “not C177S- and C179S-DCAF16”, the “polyubiquitination of cytosolic FKBP12” value [3] was “not cytosolic FKBP12” and the “polyubiquitination of FKBP12_NLS after shRNA knockdown of DCAF16” value [4] was “abolished KB02-SLF-induced polyubiquitination of FKBP12_NLS”. The “polyubiquitination of nuclear FKBP12_NLS” value [4] was “induced polyubiquitination of nuclear FKBP12_NLS”.

With `Cc1sc2c(c1C)C(c1ccc(Cl)cc1)=N[C@@H](CC(=O)NCCOCCOCCNC(=O)COc1ccc3c(c1)CCCN3C(=O)CCl)c1nnc(C)n1-2` [KB02-JQ1, (S)-2-((1-(2-chloroacetyl)-1,2,3,4-tetrahydroquinolin-6-yl)oxy)-N-(2-(2-(2-(2-(4-(4-chlorophenyl)-2,3,9-trimethyl-6H-thieno[3,2-f][1,2,4]triazolo[4,3-a][1,4]diazepin-6-yl)acetamido)ethoxy)ethoxy)ethyl)acetamide] the “BRD2 abundance (MS-based proteomics)” value [5] was “appeared to be stabilized”.
